Results from patent US9750759B2, “Antitumoral compounds” (priority 2008, dated 2017).
Where two headings read alike, the source gives them in different places.

Tests used:
Test in all cases: cells
Format in all cases: cell-based
Conditions in all cases: Homo sapiens; for GI50: concentration that produces 50% growth inhibition; for IC (total growth inhibition): total growth inhibition (cytostatic effect), read-out: TGI
MDA-MB-231 = system: MDA-MB-231
Description: (§1) The aim of this assay is to evaluate the in vitro cytostatic (ability to delay or arrest tumor cell growth) or cytotoxic (ability to kill tumor cells) activity of the samples being tested.
(§2) A colorimetric type of assay, using sulforhodamine B (SRB) reaction has been adapted for a quantitative measurement of cell growth and viability (following the technique described by Skehan P et al. J. Natl. Cancer Inst. 1990, 82, 1107-1112).
(§3) This form of assay employs SBS-standard 96-well cell culture microplates (Faircloth et al. Methods in cell science, 1988, 11(4), 201-205; Mosmann et al, Journal of Immunological. Methods, 1983, 65(1-2), 55-63). All the cell lines used in this study, derived from different types of human cancer, were obtained from the American Type Culture Collection (ATCC).
(§4) Cells were maintained in Dulbecco's Modified Eagle Medium (DMEM) supplemented with 10% Fetal Bovine Serum (FBS), 2 mM L-glutamine, 100 U/mL penicillin and 100 U/mL streptomycin at 37° C., 5% CO2 and 98% humidity. For the experiments, cells were harvested from subconfluent cultures using trypsinization and resuspended in fresh medium before counting and plating.
(§5) Cells were seeded in 96 well microtiter plates at 5×10^3 cells per well in aliquots of 150 μL, and allowed to attach to the plate surface for 18 hours in drug free medium. One control (untreated) plate of each cell line was fixed (as described below) and used for time zero reference value. Afterwards, test samples were added to the cultures in ten serial dilutions, in aliquots of 50 μL, ranging from 10 to 0.00262 μg/mL. After 48 hours exposure, the antitumor effect was estimated by the SRB method: Briefly, cells were washed twice with PBS, fixed for 15 min in 1% glutaraldehyde solution, rinsed twice in PBS, and stained in 0.4% SRB solution for 30 min at room temperature. Cells were then rinsed several times with 1% acetic acid solution and air-dried. SRB was then extracted in 10 mM trizma base solution and the absorbance measured in an automated spectrophotometric plate reader at 490 nm. Cell survival was expressed as percentage of control cell growth. The final effect of the sample being tested was estimated by applying the NCI algorithm (Boyd M R and Paull K D. Drug Dev. Res. 1995, 34, 91-104).
(§6) Using the mean±SD of triplicate cultures, a dose-response curve was automatically generated using nonlinear regression analysis. Three reference parameters were calculated (NCI algorithm) by automatic interpolation: GI50=concentration that produces 50% growth inhibition; TGI=total growth inhibition (cytostatic effect) and LC50=concentration that produces 50% net cell killing (cytotoxic effect).

HT29 = system: HT29
Description: as §1, §2, §3, §4, §5, §6

A549 = system: A549
Description: as §1, §2, §3, §4, §5, §6

[1] = MDA-MB-231, 48 hours exposure, concentration that produces 50% net cell killing, read-out: LC50 (the source's name)
[2] = HT-29, HT29, 48 hours exposure, concentration that produces 50% net cell killing, read-out: LC50 (the source's name)
[3] = A549, 48 hours exposure, concentration that produces 50% net cell killing, read-out: LC50 (the source's name)

Compound	GI50 (MDA-MB-231; MDA-MB-231, 48 hours exposure) [µM]	CC50 (MDA-MB-231; [1]) [µM]	IC (total growth inhibition) (MDA-MB-231; MDA-MB-231, 48 hours exposure) [µM]	GI50 (HT29; HT-29, HT29, 48 hours exposure) [µM]	CC50 (HT29; [2]) [µM]	IC (total growth inhibition) (HT29; HT-29, HT29, 48 hours exposure) [µM]	GI50 (A549; A549, 48 hours exposure) [µM]	CC50 (A549; [3]) [µM]	IC (total growth inhibition) (A549; A549, 48 hours exposure) [µM]	CC50 (MDA-MB-231; MDA-MB-231, 48 h, read-out: LC50) [µM]	CC50 (HT29; HT-29, 48 h, read-out: LC50) [µM]	CC50 (A549; A549, 48 h, read-out: LC50) [µM]
COC1=CC[C@@H]([C@@H](C)/C=C\C=C/C(=O)N[C@H](C(=O)N/C=C\C[C@H](C/C=C(\C)Cl)O[Si](C)(C)C(C)(C)C)C(C)(C)C)OC1=O [Compound 67]	0.91	1.21	1.04	1.88	3.14	2.35	1.57	4.86	2.82	–	–	–
CC#CC[C@@H](C/C=C\NC(=O)[C@@H](NC(=O)\C=C/C=C\C(C)=C\[C@H](C)[C@@H]1CC=C(OC)C(=O)O1)C(C)(C)C)O[Si](c1ccccc1)(c1ccccc1)C(C)(C)C [Compound 70]	1.7	3.53	2.48	1.96	4.05	2.74	2.09	3.27	2.61	–	–	–
COC1=CC[C@@H]([C@@H](C)/C=C(C)/C=C\C#CC(=O)NC(C(=O)N/C=C\C[C@H](C/C=C(\C)Cl)O[Si](c2ccccc2)(c2ccccc2)C(C)(C)C)C(C)(C)C)OC1=O (stereo partly drawn) [Compound 78]	> 12.5	> 12.5	> 12.5	> 12.5	> 12.5	> 12.5	> 12.5	> 12.5	> 12.5	–	–	–
C/C=C\C[C@H](O)C/C=C\NC(=O)[C@@H](NC(=O)/C=C\C#C/C(C)=C/[C@H](C)[C@@H]1CC=C(OC)C(=O)O1)C(C)(C)C [Compound 96]	13.1	–	> 19	5.89	–	8.92	7.78	–	> 19	> 19	> 19	> 19
C/C=C\C[C@@H](C/C=C\NC(=O)[C@@H](NC(=O)C#C/C=C\C(C)=C\[C@H](C)[C@@H]1CC=C(OC)C(=O)O1)C(C)(C)C)O[Si](c1ccccc1)(c1ccccc1)C(C)(C)C [Compound 79]	> 13.1	> 13.1	> 13.1	5.1	> 13.1	> 13.1	> 13.1	> 13.1	> 13.1	–	–	–
